# From patent US9409914B2, “Triazolo[4,5-d]pyrimidine derivatives” (Merck Patent GmbH, priority 2012, dated 2016)
# How the values were obtained:
# GCN2 [1] = target: T1, GCN2 (Homo sapiens, UniProt Q9P2K8); test: GCN2 enzyme assay (TR-FRET Lanthascreen, phosphorylation of GFP-eIF2alpha); format: biochemical; conditions: 10 μM ATP, 80 nM GFP-eIF2alpha, 30 nM GCN2, room temperature
# How it was run: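 Two-step TR-FRET (Lanthascreen) format: GCN2 incubated at room temperature with 10 μM ATP and 80 nM GFP-labelled eIF2alpha, then stopped with EDTA. Phospho-eIF2alpha detected by Tb-labelled antibody, excitation 340 nm; activity taken from the 520/495 nm emission ratio.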
# Target sequence in this assay (Q9P2K8 whole entry, species assumed): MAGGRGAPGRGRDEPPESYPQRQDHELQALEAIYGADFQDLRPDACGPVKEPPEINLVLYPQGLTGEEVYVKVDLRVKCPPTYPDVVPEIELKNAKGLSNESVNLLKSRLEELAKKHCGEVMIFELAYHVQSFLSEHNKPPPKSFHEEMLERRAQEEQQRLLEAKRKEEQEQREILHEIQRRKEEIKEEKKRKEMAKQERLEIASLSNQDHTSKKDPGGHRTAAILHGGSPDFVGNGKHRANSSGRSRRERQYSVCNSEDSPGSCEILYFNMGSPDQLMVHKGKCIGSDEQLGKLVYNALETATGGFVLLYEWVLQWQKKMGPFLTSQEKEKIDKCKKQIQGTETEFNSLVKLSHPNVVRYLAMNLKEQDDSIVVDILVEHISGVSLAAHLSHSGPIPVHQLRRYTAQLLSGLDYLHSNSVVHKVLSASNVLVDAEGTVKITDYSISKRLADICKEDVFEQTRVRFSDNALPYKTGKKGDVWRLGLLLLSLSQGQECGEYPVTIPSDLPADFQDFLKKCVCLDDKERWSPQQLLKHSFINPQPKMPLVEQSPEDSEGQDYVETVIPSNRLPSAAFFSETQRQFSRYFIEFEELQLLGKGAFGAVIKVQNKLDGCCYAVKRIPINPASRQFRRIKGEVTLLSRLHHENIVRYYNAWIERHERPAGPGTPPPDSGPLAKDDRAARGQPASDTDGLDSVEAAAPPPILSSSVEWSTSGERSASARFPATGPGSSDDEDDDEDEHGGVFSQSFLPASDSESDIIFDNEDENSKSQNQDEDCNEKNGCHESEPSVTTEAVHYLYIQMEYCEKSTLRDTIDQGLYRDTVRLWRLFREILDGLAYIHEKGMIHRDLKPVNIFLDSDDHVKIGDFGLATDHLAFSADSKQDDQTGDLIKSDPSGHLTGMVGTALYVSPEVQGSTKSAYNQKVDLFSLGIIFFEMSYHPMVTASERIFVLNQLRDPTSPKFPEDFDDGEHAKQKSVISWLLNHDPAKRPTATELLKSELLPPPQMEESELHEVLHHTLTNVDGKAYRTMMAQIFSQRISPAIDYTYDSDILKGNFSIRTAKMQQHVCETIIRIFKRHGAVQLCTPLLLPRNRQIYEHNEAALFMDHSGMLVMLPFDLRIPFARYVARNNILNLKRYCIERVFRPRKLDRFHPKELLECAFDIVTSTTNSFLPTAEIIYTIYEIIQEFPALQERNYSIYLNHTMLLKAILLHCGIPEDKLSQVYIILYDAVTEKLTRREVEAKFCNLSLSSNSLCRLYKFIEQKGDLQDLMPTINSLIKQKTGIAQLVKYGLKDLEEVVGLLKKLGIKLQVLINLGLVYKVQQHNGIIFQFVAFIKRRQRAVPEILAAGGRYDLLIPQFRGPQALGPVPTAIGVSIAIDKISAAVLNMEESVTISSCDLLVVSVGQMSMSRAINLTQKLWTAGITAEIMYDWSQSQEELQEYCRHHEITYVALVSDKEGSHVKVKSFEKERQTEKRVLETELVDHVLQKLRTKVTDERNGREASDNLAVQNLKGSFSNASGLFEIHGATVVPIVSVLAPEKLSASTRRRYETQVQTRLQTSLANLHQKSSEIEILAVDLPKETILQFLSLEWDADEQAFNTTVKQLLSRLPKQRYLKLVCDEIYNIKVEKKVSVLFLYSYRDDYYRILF
# GCN2 [2] = target: T1, GCN2; test: Cellular assay for GCN2 activity (phospho-eIF2alpha immunocytochemistry, tryptophanol-stimulated U2OS cells); format: cell-based; parameters: endogenous in cells; host or cells: U2OS; conditions: 2 hours compound, then 600 μM tryptophanol 30 minutes, anti-phospho-eIF2alpha, read-out: IC50 GCN2 (cell assay)
# Procedure: Cellular Assay for the Determination of Compound Activities
# Human U2OS cells (2000 cells/well) are seeded into 384-well plates and incubated for 20 hours.
# The next day, the cells are treated with the test compounds and incubated for 2 hours. Then, tryptophanol, at a final concentration of 600 μM, is added to the cells and those are incubated for 30 minutes.
# The analysis of cellular GCN2 activities is done by immunocytochemistry. Briefly, cells are fixated on the well surfaces by formaldehyde and permeabilised with Triton X-100. The primary antibody (anti-phospho-eIF2alpha (Ser51, Cell Signalling Technology, #3398) is incubated on the treated cells for 20 hours, followed by a 60 minutes incubation of the secondary antibody (anti-rabbit-IgG-Alexa 488; Molecular Probes #11008). The analysis and quantification of phosphorylated GCN2 is done by scanning the plates in the Acumen Explorer system (TTPLabtech). The obtained data are normalised against the untreated control wells (DMSO only) and expressed as % effect values. The determination of IC50 values is done by using the Graph Pad Prism software.
# Target sequence in this assay (Q9P2K8 whole entry): as the sequence (Q9P2K8 whole entry, species assumed) above
compound,measurement,setting,value
"CCn1cc(Nc2ncc3nnn(-c4cccc(C(N)=O)c4)c3n2)cn1 [Compound A68, 3-[5-(1-ethyl-1H-pyrazol-4-ylamino)-[1,2,3]triazolo[4,5-d]pyrimidin-3-yl]-benzamide]",IC50,GCN2 [1],300 to 3000 nM
same,IC50,GCN2 [2],3000 to 50000 nM
"CN1CCC(n2cc(Nc3ncc4nnn(-c5ccc(C(N)=O)cc5)c4n3)cn2)CC1 [Compound A69, 4-{5-[1-(1-methyl-piperidin-4-yl)-1H-pyrazol-4-ylamino]-[1,2,3]triazolo[4,5-d]pyrimidin-3-yl}-benzamide]",IC50,GCN2 [1],< 300 nM
same,IC50,GCN2 [2],300 to 3000 nM
"CCn1cc(Nc2ncc3nnn(-c4ccc(C(N)=O)cc4)c3n2)cn1 [Compound A70, 4-[5-(1-ethyl-1H-pyrazol-4-ylamino)-[1,2,3]triazolo[4,5-d]pyrimidin-3-yl]-benzamide]",IC50,GCN2 [1],< 300 nM
same,IC50,GCN2 [2],3000 to 50000 nM
"CCn1cc(Nc2ncc3nnn(-c4ccc5ncccc5c4)c3n2)cn1 [Compound A71, (1-ethyl-1H-pyrazol-4-yl)-(3-quinolin-6-yl-3H-[1,2,3]triazolo[4,5-d]pyrimidin-5-yl)-amine]",IC50,GCN2 [1],< 300 nM
same,IC50,GCN2 [2],300 to 3000 nM
"CN1CCC(n2cc(Nc3ncc4nnn(-c5ccc6cccnc6c5)c4n3)cn2)CC1 [Compound A73, [1-(1-methyl-piperidin-4-yl)-1H-pyrazol-4-yl]-(3-quinolin-7-yl-3H-[1,2,3]triazolo[4,5-d]pyrimidin-5-yl)-amine]",IC50,GCN2 [1],< 300 nM
same,IC50,GCN2 [2],3000 to 50000 nM
"CN1CCC(n2cc(Nc3ncc4nnn(-c5ccc6ncccc6c5)c4n3)cn2)CC1 [Compound A75, [1-(1-methyl-piperidin-4-yl)-1H-pyrazol-4-yl]-(3-quinolin-6-yl-3H-[1,2,3]triazolo[4,5-d]pyrimidin-5-yl)-amine]",IC50,GCN2 [1],< 300 nM
same,IC50,GCN2 [2],300 to 3000 nM
"COCCN1CCC(n2cc(Nc3ncc4nnn(-c5ccnc(OC)c5)c4n3)cn2)CC1 [Compound A76, {1-[1-(2-methoxy-ethyl)-piperidin-4-yl]-1H-pyrazol-4-yl}-[3-(2-methoxy-pyridin-4-yl)-3H-[1,2,3]triazolo[4,5-d]pyrimidin-5-yl]-amine]",IC50,GCN2 [1],< 300 nM
same,IC50,GCN2 [2],3000 to 50000 nM
"COc1ccc(-n2nnc3cnc(Nc4cnn(C5CCN(C)CC5)c4)nc32)nc1 [Compound A77, [3-(5-methoxy-pyridin-2-yl)-3H-[1,2,3]triazolo[4,5-d]pyrimidin-5-yl]-[1-(1-methyl-piperidin-4-yl)-1H-pyrazol-4-yl]-amine]",IC50,GCN2 [1],< 300 nM
same,IC50,GCN2 [2],300 to 3000 nM
"CCn1cc(-n2nnc3cnc(Nc4cnn(C5CCN(C)CC5)c4)nc32)cn1 [Compound A79, [3-(1-ethyl-1H-pyrazol-4-yl)-3H-[1,2,3]triazolo[4,5-d]pyrimidin-5-yl]-[1-(1-methyl-piperidin-4-yl)-1H-pyrazol-4-yl]-amine]",IC50,GCN2 [1],< 300 nM
same,IC50,GCN2 [2],300 to 3000 nM
"NC(=O)c1ccc(-n2nnc3cnc(Nc4cnn(C5CCOCC5)c4)nc32)cc1 [Compound A80, 4-{5-[1-(tetrahydro-pyran-4-yl)-1H-pyrazol-4-ylamino]-[1,2,3]triazolo[4,5-d]pyrimidin-3-yl}-benzamide]",IC50,GCN2 [1],300 to 3000 nM
same,IC50,GCN2 [2],< 300 nM
"Fc1cc(-n2nnc3cnc(Nc4cnn(C5CCOCC5)c4)nc32)ccc1Cl [Compound A81, [3-(4-chloro-3-fluoro-phenyl)-3H-[1,2,3]triazolo[4,5-d]pyrimidin-5-yl]-[1-(tetrahydro-pyran-4-yl)-1H-pyrazol-4-yl]-amine]",IC50,GCN2 [1],< 300 nM
same,IC50,GCN2 [2],300 to 3000 nM
"c1cnc2ccc(-n3nnc4cnc(Nc5cnn(C6CCOCC6)c5)nc43)cc2c1 [Compound A82, (3-quinolin-6-yl-3H-[1,2,3]triazolo[4,5-d]pyrimidin-5-yl)-[1-(tetrahydro-pyran-4-yl)-1H-pyrazol-4-yl]-amine]",IC50,GCN2 [1],300 to 3000 nM
same,IC50,GCN2 [2],300 to 3000 nM
"CCn1cc(-n2nnc3cnc(Nc4cnn(C5CCOCC5)c4)nc32)cn1 [Compound A83, [3-(1-ethyl-1H-pyrazol-4-yl)-3H-[1,2,3]triazolo[4.5-d]pyrimidin-5-yl]-[1-(tetrahydro-pyran-4-yl)-1H-pyrazol-4-yl]-amine]",IC50,GCN2 [1],< 300 nM
same,IC50,GCN2 [2],3000 to 50000 nM
"CCn1cc(Nc2ncc3nnn(-c4ccc5c(c4)NC(=O)C5(C)C)c3n2)cn1 [Compound A84, 6-[5-(1-ethyl-1H-pyrazol-4-ylamino)-[1,2,3]triazolo[4,5-d]pyrimidin-3-yl]-3,3-dimethyl-1,3-dihydro-indol-2-one]",IC50,GCN2 [1],< 300 nM
same,IC50,GCN2 [2],300 to 3000 nM
"CC1(C)C(=O)Nc2cc(-n3nnc4cnc(Nc5cnn(C6CCOCC6)c5)nc43)ccc21 [Compound A85, 3,3-dimethyl-6-{5-[1-(tetrahydro-pyran-4-yl)-1H-pyrazol-4-ylamino]-[1,2,3]triazolo[4,5-d]pyrimidin-3-yl}-1,3-dihydro-indol-2-one]",IC50,GCN2 [1],< 300 nM
same,IC50,GCN2 [2],300 to 3000 nM
"COCCOc1ccc(-n2nnc3cnc(Nc4cnn(C5CCOCC5)c4)nc32)cc1 [Compound A87, {3-[4-(2-methoxy-ethoxy)-phenyl]-3H-[1,2.3]triazolo[4,5-d]pyrimidin-5-yl}-[1-(tetrahydro-pyran-4-yl)-1H-pyrazol-4-yl]-amine]",IC50,GCN2 [1],< 300 nM
same,IC50,GCN2 [2],300 to 3000 nM
"CCn1cc(Nc2ncc3nnn(-c4ccc5[nH]ncc5c4)c3n2)cn1 [Compound A91, (1-ethyl-1H-pyrazol-4-yl)-[3-(1H-indazol-5-yl)-3H-[1,2,3]triazolo[4,5-d]pyrimidin-5-yl]-amine]",IC50,GCN2 [1],< 300 nM
same,IC50,GCN2 [2],300 to 3000 nM
"c1nn(C2CCOCC2)cc1Nc1ncc2nnn(-c3ccc4cn[nH]c4c3)c2n1 [Compound A92, [3-(1H-indazol-6-yl)-3H-[1,2,3]triazolo[4,5-d]pyrimidin-5-yl]-[1-(tetrahydro-pyran-4-yl)-1H-pyrazol-4-yl]-amine]",IC50,GCN2 [1],< 300 nM
same,IC50,GCN2 [2],< 300 nM
"CN1CCC(n2cc(Nc3ncc4nnn(-c5ccc6[nH]ncc6c5)c4n3)cn2)CC1 [Compound A93, [3-(1H-indazol-5-yl)-3H-[1,2,3]triazolo[4,5-d]pyrimidin-5-yl]-[1-(1-methyl-piperidin-4-yl)-1H-pyrazol-4-yl]-amine]",IC50,GCN2 [1],< 300 nM
same,IC50,GCN2 [2],3000 to 50000 nM
"CN1CCC(n2cc(Nc3ncc4nnn(-c5ccc6[nH]c(C(F)(F)F)nc6c5)c4n3)cn2)CC1 [Compound A95, [1-(1-methyl-piperidin-4-yl)-1H-pyrazol-4-yl]-[3-(2-trifluoromethyl-1H-benzoimidazol-5-yl)-3H-[1,2,3]triazolo[4,5-d]pyrimidin-5-yl]-amine]",IC50,GCN2 [1],< 300 nM
same,IC50,GCN2 [2],3000 to 50000 nM
"COCCOc1ccc(-n2nnc3cnc(Nc4cnn(C5CCNC5)c4)nc32)cc1 (centres unmarked) [Compound A96, {3-[4-(2-methoxy-ethoxy)-phenyl]-3H-[1,2,3]triazolo[4,5-d]pyrimidin-5-yl}-(1-pyrrolidin-3-yl-1H-pyrazol-4-yl)-amine]",IC50,GCN2 [1],< 300 nM
same,IC50,GCN2 [2],300 to 3000 nM
"CCOc1ccc(-n2nnc3cnc(Nc4cnn(CCC5CCNCC5)c4)nc32)cc1 [Compound A97, [3-(4-ethoxy-phenyl)-3H-[1,2,3]triazolo[4,5-d]pyrimidin-5-yl]-[1-(2-piperidin-4-yl-ethyl)-1H-pyrazol-4-yl]-amine]",IC50,GCN2 [1],< 300 nM
same,IC50,GCN2 [2],300 to 3000 nM
"COCCOc1ccc(-n2nnc3cnc(Nc4cnn(C5CCN(C(C)=O)C5)c4)nc32)cc1 (centres unmarked) [Compound A99, 1-[3-(4-{3-[4-(2-methoxy-ethoxy)-phenyl]-3H-[1,2,3]triazolo[4,5-d]pyrimidin-5-ylamino}-pyrazol-1-yl)-pyrrolidin-1-yl]-ethanone]",IC50,GCN2 [1],< 300 nM
same,IC50,GCN2 [2],3000 to 50000 nM
"CCOc1ccc(-n2nnc3cnc(Nc4cnn(CCC5CCN(C(C)=O)CC5)c4)nc32)cc1 [Compound A100, 1-[4-(2-{4-[3-(4-ethoxy-phenyl)-3H-[1,2,3]triazolo[4,5-d]pyrimidin-5-ylamino]-pyrazol-1-yl}-ethyl)-piperidin-1-yl]-ethanone]",IC50,GCN2 [1],< 300 nM
same,IC50,GCN2 [2],3000 to 50000 nM
"CN1CCC(n2cc(Nc3ncc4nnn(-c5ccc6nccnc6c5)c4n3)cn2)CC1 [Compound A101, [1-(1-methyl-piperidin-4-yl)-1H-pyrazol-4-yl]-(3-quinoxalin-6-yl-3H-[1,2,3]triazolo[4,5-d]pyrimidin-5-yl)-amine]",IC50,GCN2 [1],< 300 nM
same,IC50,GCN2 [2],3000 to 50000 nM
"O[C@H]1CC[C@H](n2cc(Nc3ncc4nnn(-c5ccc(Cl)c(F)c5)c4n3)cn2)CC1 [Compound A103, 4-{4-[3-(4-chloro-3-fluoro-phenyl)-3H-[1,2,3]triazolo[4,5-d]pyrimidin-5-ylamino]-pyrazol-1-yl}-cyclohexanol]",IC50,GCN2 [1],< 300 nM
same,IC50,GCN2 [2],< 300 nM
"CCn1cc(Nc2ncc3nnn(-c4cnn(CC)c4)c3n2)cn1 [Compound A106, (1-ethyl-1H-pyrazol-4-yl)-[3-(1-ethyl-1H-pyrazol-4-yl)-3H-[1,2,3]triazolo[4,5-d]pyrimidin-5-yl]-amine]",IC50,GCN2 [1],< 300 nM
same,IC50,GCN2 [2],3000 to 50000 nM
"COCCOc1ccc(-n2nnc3cnc(Nc4cnn([C@H]5CC[C@@H](O)CC5)c4)nc32)cc1 [Compound A107, 4-(4-{3-[4-(2-methoxy-ethoxy)-phenyl]-3H-[1,2,3]triazolo[4,5-d]pyrimidin-5-ylamino}-pyrazol-1-yl)-cyclohexanol]",IC50,GCN2 [1],< 300 nM
same,IC50,GCN2 [2],300 to 3000 nM
